From US20250296959A1, “B7-H3 TARGETING PEPTIDES AND CONSTRUCTS THEREOF” (Mariana Oncology Inc., priority 2024, published 2025)
Starred links: 1 amine or outer side, 2 acyl side, 3 side chain; linkers in the order of their positions; H or OH if unused. Positions of bridges follow the written chain, without caps; N, C: chain ends. Non-standard residues stand in square brackets, D forms with d. Residues, ends and D or L forms follow the SMILES beside them. Groups on a side chain read outwards from the residue. *: point of attachment. Ala(piperidin-4-yl) = O=C([C@H](CC1CCN([*:3])CC1)N[*:1])[*:2]; DOTA = O=C(O)CN1CCN(CC(=O)O)CCN(CC(=O)*)CCN(CC(=O)O)CC1; Phe(4-COOH) = N[C@@H](Cc1ccc(C(=O)O)cc1)C(=O)O; Trp(4-Me) = Cc1cccc2[nH]cc(C[C@H](N)C(=O)O)c12; Trp(5-F) = N[C@@H](Cc1c[nH]c2ccc(F)cc12)C(=O)O; Phe(4-F) = N[C@@H](Cc1ccc(F)cc1)C(=O)O; 1Nal = N[C@@H](Cc1cccc2ccccc12)C(=O)O; Ala(4-THP) = N[C@@H](CC1CCOCC1)C(=O)O; Val(3-OH) = CC(C)(O)[C@H](N)C(=O)O; Hyp = O=C(O)[C@@H]1C[C@@H](O)CN1; 4Pal = N[C@@H](Cc1ccncc1)C(=O)O; PEG4 = NCCOCCOCCOCCOCCC(=O)O; Tle = CC(C)(C)[C@H](N)C(=O)O; hLeu = CC(C)CC[C@H](N)C(=O)O; Pip = O=C(O)[C@@H]1CCCCN1; Nle = CCCC[C@H](N)C(=O)O

molecular target: T1, human 4lg B7-H3 (Homo sapiens, UniProt Q5ZPR3); assay: Affinity determination by surface plasmon resonance (SPR) to 4Ig B7-H3; conditions: SPR KD—25° C., 4Ig B7-H3; 25° C. flow cell temperature
T1 sequence (Q5ZPR3 29-534): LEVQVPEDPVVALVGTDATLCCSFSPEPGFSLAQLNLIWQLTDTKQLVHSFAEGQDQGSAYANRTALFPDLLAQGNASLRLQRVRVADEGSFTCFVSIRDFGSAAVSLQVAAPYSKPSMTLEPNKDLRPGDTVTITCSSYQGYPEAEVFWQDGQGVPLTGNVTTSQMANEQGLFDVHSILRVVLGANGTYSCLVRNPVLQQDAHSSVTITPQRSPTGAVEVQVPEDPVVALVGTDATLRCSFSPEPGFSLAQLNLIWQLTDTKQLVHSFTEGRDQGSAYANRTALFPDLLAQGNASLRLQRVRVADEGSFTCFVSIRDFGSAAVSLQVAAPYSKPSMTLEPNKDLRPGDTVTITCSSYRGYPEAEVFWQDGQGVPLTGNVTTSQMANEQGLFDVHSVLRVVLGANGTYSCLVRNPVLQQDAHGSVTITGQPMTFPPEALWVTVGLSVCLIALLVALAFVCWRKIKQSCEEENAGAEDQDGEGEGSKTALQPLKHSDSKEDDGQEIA

Kd [nM] | Compound
10 to 100 | CC(=O)N[C@@H](CCC(C)C)C(=O)N[C@@H](Cc1ccc(O)cc1)C(=O)N[C@H]1CSSC[C@@H](C(=O)N[C@@H](Cc2c[nH]c3ccc(F)cc23)C(=O)N[C@@H](CC(C)C)C(=O)N[C@H](C(=O)N[C@H](CCCCNC(=O)CN2CCN(CC(=O)O)CCN(CC(=O)O)CCN(CC(=O)O)CC2)C(=O)O)[C@@H](C)O)NC(=O)[C@H](Cc2ccc(O)cc2)NC(=O)[C@H](C(C)C)NC(=O)[C@H](CC(=O)O)NC(=O)[C@H](CC2CCOCC2)NC(=O)[C@H](CCCCN)NC(=O)CNC(=O)[C@H](C(C)(C)C)NC1=O [compound 334, Ac-hLeu-Y-C-Tbg-G-K-ThpA-D-V-Y-C-5FW-Leu-Thr-dLys(DOTA)-COOH] (Ac-[hLeu]YC[Tle]GK[Ala(4-THP)]DVYC[Trp(5-F)]LT[dK](DOTA)-OH; disulfide 3-11)
1 to 10 | CC(=O)N[C@@H](CCC(C)C)C(=O)N[C@@H](Cc1ccc(O)cc1)C(=O)N[C@H]1CSSC[C@@H](C(=O)N[C@@H](Cc2c[nH]c3ccc(F)cc23)C(=O)N[C@@H](Cc2ccccc2)C(=O)N2C[C@H](O)C[C@H]2C(=O)N[C@H](CCCCNC(=O)CN2CCN(CC(=O)O)CCN(CC(=O)O)CCN(CC(=O)O)CC2)C(N)=O)NC(=O)[C@H](Cc2ccc(O)cc2)NC(=O)[C@H](C(C)C)NC(=O)[C@H](CC(=O)O)NC(=O)[C@H](Cc2ccc(O)cc2)NC(=O)[C@H](CCCCN)NC(=O)CNC(=O)[C@H](C(C)C)NC1=O [compound 161, Ac-hLeu-Y-C-V-G-K-Y-D-V-Y-C-5FW-F-4OHPro-dLys(DOTA)-CONH2] (Ac-[hLeu]YCVGKYDVYC[Trp(5-F)]F[Hyp][dK](DOTA)-NH2; disulfide 3-11)
1 to 10 | CC[C@H](C)[C@@H]1NC(=O)[C@@H](NC(=O)[C@H](Cc2ccc(O)cc2)NC(=O)[C@H](CCC(C)C)NC(C)=O)CSSC[C@@H](C(=O)N[C@@H](Cc2c[nH]c3ccc(F)cc23)C(=O)N[C@@H](Cc2ccccc2)C(=O)N2CCC[C@H]2C(N)=O)NC(=O)[C@H](Cc2ccc(O)cc2)NC(=O)[C@H](C(C)C)NC(=O)[C@H](CC(=O)O)NC(=O)[C@H](Cc2ccncc2)NC(=O)[C@H](CCCCNC(=O)CN2CCN(CC(=O)O)CCN(CC(=O)O)CCN(CC(=O)O)CC2)NC(=O)CNC1=O [compound 260, Ac-hLeu-Y-C-Ile-G-Lys(DOTA)-4PyA-D-V-Y-C-5FW-F-Pro-CONH2] (Ac-[hLeu]YCIGK(DOTA)[4Pal]DVYC[Trp(5-F)]FP-NH2; disulfide 3-11)
1 to 10 | CC(=O)N[C@@H](CCC(C)C)C(=O)N[C@@H](Cc1ccc(O)cc1)C(=O)N[C@H]1CSSC[C@@H](C(=O)N[C@@H](Cc2c[nH]c3ccc(F)cc23)C(=O)N[C@@H](Cc2ccccc2)C(=O)N[C@H](C(=O)N[C@H](CCCCNC(=O)CN2CCN(CC(=O)O)CCN(CC(=O)O)CCN(CC(=O)O)CC2)C(N)=O)[C@@H](C)O)NC(=O)[C@H](Cc2ccc(F)cc2)NC(=O)[C@H](C(C)C)NC(=O)[C@H](CC(=O)O)NC(=O)[C@H](Cc2ccc(O)cc2)NC(=O)[C@H](CCCCN)NC(=O)CNC(=O)[C@H](C(C)C)NC1=O [compound 172, Ac-hLeu-Y-C-V-G-K-Y-D-V-4FPhe-C-5FW-F-Thr-dLys(DOTA)-CONH2] (Ac-[hLeu]YCVGKYDV[Phe(4-F)]C[Trp(5-F)]FT[dK](DOTA)-NH2; disulfide 3-11)
10 to 100 | CC(=O)N[C@@H](CCC(C)C)C(=O)N[C@@H](Cc1ccc(O)cc1)C(=O)N[C@H]1CSSC[C@@H](C(=O)N[C@@H](Cc2cccc3ccccc23)C(=O)N[C@@H](Cc2ccccc2)C(=O)N2CCCC[C@H]2C(=O)O)NC(=O)[C@H](Cc2ccc(O)cc2)NC(=O)[C@H](C(C)C)NC(=O)[C@H](CC(=O)O)NC(=O)[C@H](Cc2ccncc2)NC(=O)[C@H](CCCCNC(=O)CN2CCN(CC(=O)O)CCN(CC(=O)O)CCN(CC(=O)O)CC2)NC(=O)CNC(=O)[C@H](C(C)(C)C)NC1=O [compound 265, Ac-hLeu-Y-C-Tbg-G-Lys(DOTA)-4PyA-D-V-Y-C-1Nal-F-Pip acid-CONH2] (Ac-[hLeu]YC[Tle]GK(DOTA)[4Pal]DVYC[1Nal]F[Pip]-OH; disulfide 3-11)
10 to 100 | CCCC[C@@H]1NC(=O)[C@H](C(C)C)NC(=O)[C@H](CC(=O)O)NC(=O)[C@H](Cc2ccc(C(=O)O)cc2)NC(=O)[C@H](CCCCN)NC(=O)CNC(=O)[C@H](C(C)C)NC(=O)[C@@H](NC(=O)[C@H](Cc2ccc(O)cc2)NC(=O)[C@H](CCC(C)C)NC(C)=O)CSSC[C@@H](C(=O)N[C@@H](Cc2c[nH]c3ccc(F)cc23)C(=O)N[C@@H](Cc2ccccc2)C(=O)N2CCC[C@H]2C(=O)N[C@H](CCCCNC(=O)CN2CCN(CC(=O)O)CCN(CC(=O)O)CCN(CC(=O)O)CC2)C(N)=O)NC1=O [compound 287, Ac-hLeu-Y-C-V-G-K-4COOHPhe-D-V-Nle-C-5FW-F-Pro-dLys(DOTA)-CONH2] (Ac-[hLeu]YCVGK[Phe(4-COOH)]DV[Nle]C[Trp(5-F)]FP[dK](DOTA)-NH2; disulfide 3-11)

same assay, conditions: SPR KD—37° C., 4Ig B7-H3; 37° C. flow cell temperature

Kd [nM] | Compound
1 to 10 | CC(=O)N[C@@H](CCC(C)C)C(=O)N[C@@H](Cc1ccc(O)cc1)C(=O)N[C@H]1CSSC[C@@H](C(=O)N[C@@H](Cc2c[nH]c3cccc(C)c23)C(=O)N[C@@H](Cc2ccccc2)C(=O)N[C@H](C(=O)N[C@H](CCCCNC(=O)CN2CCN(CC(=O)O)CCN(CC(=O)O)CCN(CC(=O)O)CC2)C(=O)O)C(C)(C)O)NC(=O)[C@H](Cc2ccc(O)cc2)NC(=O)[C@H](C(C)C)NC(=O)[C@H](CC(=O)O)NC(=O)[C@H](CC2CCOCC2)NC(=O)[C@H](CC2CCNCC2)NC(=O)CNC(=O)[C@H](C(C)(C)C)NC1=O [compound 473, Ac-hLeu-Y-C-Tbg-G-PipAla-ThpA-D-V-Y-C-4MeW-F-hydroxyVal-dLys(DOTA)-COOH] (Ac-[hLeu]YC[Tle]G[Ala(piperidin-4-yl)][Ala(4-THP)]DVYC[Trp(4-Me)]F[Val(3-OH)][dK](DOTA)-OH; disulfide 3-11)
< 1 | CC(=O)N[C@@H](CCC(C)C)C(=O)N[C@@H](Cc1ccc(O)cc1)C(=O)N[C@H]1CSSC[C@@H](C(=O)N[C@@H](Cc2c[nH]c3ccc(F)cc23)C(=O)N[C@@H](Cc2ccccc2)C(=O)N[C@H](C(=O)N[C@H](CO)C(N)=O)C(C)(C)O)NC(=O)[C@H](Cc2ccc(O)cc2)NC(=O)[C@H](C(C)C)NC(=O)[C@H](CC(=O)O)NC(=O)[C@H](CC2CCN(C(=O)CCOCCOCCOCCOCCNC(=O)CN3CCN(CC(=O)O)CCN(CC(=O)O)CCN(CC(=O)O)CC3)CC2)NC(=O)[C@H](CC2CCNCC2)NC(=O)CNC(=O)[C@H](C(C)(C)C)NC1=O [compound 446, Ac-hLeu-Y-C-Tbg-G-PipAla-Pip(PEG4-DOTA)Ala-D-V-Y-C-5FW-F-hydroxyVal-dSer-CONH2] (Ac-[hLeu]YC[Tle]G[Ala(piperidin-4-yl)][Ala(piperidin-4-yl)]([PEG4-DOTA])DVYC[Trp(5-F)]F[Val(3-OH)][dS]-NH2; disulfide 3-11)
< 1 | CC(=O)N[C@@H](CCC(C)C)C(=O)N[C@@H](Cc1ccc(O)cc1)C(=O)N[C@H]1CSSC[C@@H](C(=O)N[C@@H](Cc2cccc3ccccc23)C(=O)N[C@@H](Cc2ccccc2)C(=O)N[C@H](C(=O)N[C@H](CCC(=O)O)C(N)=O)C(C)(C)O)NC(=O)[C@H](Cc2ccc(O)cc2)NC(=O)[C@H](C(C)C)NC(=O)[C@H](CC(=O)O)NC(=O)[C@H](CC2CCN(C(=O)CCOCCOCCOCCOCCNC(=O)CN3CCN(CC(=O)O)CCN(CC(=O)O)CCN(CC(=O)O)CC3)CC2)NC(=O)[C@H](CC2CCNCC2)NC(=O)CNC(=O)[C@H](C(C)(C)C)NC1=O [compound 454, Ac-hLeu-Y-C-Tbg-G-PipAla-Pip(PEG4-DOTA)Ala-D-V-Y-C-1Nal-F-hydroxyVal-dGlu-CONH2] (Ac-[hLeu]YC[Tle]G[Ala(piperidin-4-yl)][Ala(piperidin-4-yl)]([PEG4-DOTA])DVYC[1Nal]F[Val(3-OH)][dE]-NH2; disulfide 3-11)
